# Results as given in PMC8956739, “A synthetic lipopeptide targeting top-priority multidrug-resistant Gram-negative pathogens” (Nature Communications, 2022).
# Several values for one entry are separate records, joined by “and”; a condition that tells them apart may be missing. Equal entries are not always repeated. Residues, ends and D or L forms follow the SMILES beside them.
# Tests used:
# A. baumannii ATCC 19606 = type: cell-based, Acinetobacter baumannii; settings: ATCC 19606
# Procedure: (§1) MICs were determined in cation-adjusted Mueller–Hinton broth (CaMHB) by the broth micro-dilution method against ATCC strains and clinical isolates. MICs in the presence of Survanta® were determined as described above against P. aeruginosa ATCC 27853. In the 100 μL of fresh CaMHB containing polymyxins, 10% Survanta® (v/v, 2.5 mg/mL phospholipids) was added. MICs in the presence and absence of Survanta® were compared to determine the effect of binding to lung surfactant on the antibacterial activity of polymyxins.
# A. baumannii FADDI-AB034 = type: cell-based, Acinetobacter baumannii; settings: FADDI-AB034
# Procedure: as §1
# A. baumannii FADDI-AB030 = type: cell-based, Acinetobacter baumannii; settings: FADDI-AB030
# Procedure: as §1
# P. aeruginosa ATCC 27853 [1] = experiment: Neutropenic mouse bloodstream infection model; type: in vivo; settings: single IV dose 4 mg/kg; for Log10 CFU/mL blood at 4 h, Mean / Δlog10 CFU/mL blood (mean) / Log10 CFU/mL blood at 4 h, single mouse: 4 h; for Δlog10 CFU/mL blood (mean): treated minus control, mean of replicates; for Δlog10 CFU/mL blood (mean) / Log10 CFU/mL blood at 4 h, single mouse / Delta Log10 CFU/mL blood at 4 h, single mouse: 4 mg/kg; for Delta Log10 CFU/mL blood at 4 h, single mouse: treated mouse minus mean of vehicle mice
# Procedure: The experimental methodology for the neutropenic mouse bloodstream infection model was described previously. Briefly, 7-week-old female Swiss mice (22–28 g) were rendered neutropenic by intraperitoneal administration of cyclophosphamide, 4 days (150 mg/kg) and 1 day (100 mg/kg) prior to inoculation. Bloodstream infection was established by intravenous administration of a 50 µL bolus of early log-phase bacterial suspension (4 × 10^8 CFU/mL). Lipopeptide solutions were prepared at 1 mg/mL (free base) in sterile saline. At 2 h after inoculation, mice (n = 3) were injected intravenously with lipopeptide solution at 4 mg/kg (free base) or saline control. At 0 and 4 h after administration, blood was collected, diluted serially in sterile saline, and plated on nutrient agar plates. Agar plates were incubated at 37 °C overnight for bacterial colony counting and the bacterial load in the blood (log10 CFU/mL) in each mouse was calculated. In vivo efficacy was calculated as the difference of the log10 CFU/mL blood values between the treated mice and the saline-treated mice at 4 h post dosing (Δlog10 CFU/mL blood = log10 [treated] CFU/mL blood − log10[control] CFU/mL blood).
# [2] = test system: K. pneumoniae FADDI-KP065; type: cell-based, Klebsiella pneumoniae; settings: FADDI-KP065
# Procedure: as §1
# [3] = test system: K. pneumoniae FADDI-KP032; type: cell-based, Klebsiella pneumoniae; settings: FADDI-KP032
# Procedure: as §1
# [4] = test system: P. aeruginosa FADDI-PA038; type: cell-based, Pseudomonas aeruginosa; settings: FADDI-PA038
# Procedure: as §1
# P. aeruginosa ATCC 27853 [5] = type: cell-based, Pseudomonas aeruginosa
# Procedure: as §1
# [6] = test system: P. aeruginosa FADDI-PA025; type: cell-based, Pseudomonas aeruginosa; settings: FADDI-PA025
# Procedure: as §1
# Swiss mice, kidney = experiment: Nephrotoxicity in mice (kidney histopathology); type: in vivo, mouse; settings: for Kidney histopathology (SQS Score): 72 mg/kg/d subcutaneously in six divided doses every 2 h, n = 3; for Kidney histopathology, mice with the SQS score: mouse, in vivo
# Procedure: The experimental methodology has been previously reported by our group. Briefly, individual lipopeptide solutions were prepared in sterile saline (6 mg/mL). Swiss mice (female, 7-week-old, 22–28 g) were subcutaneously administered at 12 mg/kg in, 6 doses every 2 h to reach a total dose of 72 mg/kg (n = 3). For high-dose nephrotoxicity experiments, mice were intraperitoneally administered at 20 or 25 mg/kg, in 6 doses every 2 h to reach a total dose of 120 mg/kg (n = 6) or 150 mg/kg (n = 3). At 20 h after the last dose, the right kidney from each mouse was collected and placed in 10% buffered (pH 7.4) formalin (Sigma-Aldrich, Castle Hill, NSW, Australia). The kidneys were subjected to histological examination at the Australian Phenomics Network-Histopathology and Organ Pathology (University of Melbourne, Parkville, VIC, Australia), who was blind to the treatment groups.
SMILES,MIC A. baumannii ATCC 19606 (A. baumannii ATCC 19606),MIC A. baumannii FADDI-AB034 (A. baumannii FADDI-AB034),MIC A. baumannii FADDI-AB030 (A. baumannii FADDI-AB030),"Log10 CFU/mL blood at 4 h, Mean (P. aeruginosa ATCC 27853 [1])",Δlog10 CFU/mL blood (mean) (P. aeruginosa ATCC 27853 [1]),"Log10 CFU/mL blood at 4 h, single mouse (P. aeruginosa ATCC 27853 [1])","Delta Log10 CFU/mL blood at 4 h, single mouse (P. aeruginosa ATCC 27853 [1])",MIC K. pneumoniae FADDI-KP065 [2],MIC K. pneumoniae FADDI-KP032 [3],MIC P. aeruginosa FADDI-PA038 [4],MIC P. aeruginosa ATCC 27853 (P. aeruginosa ATCC 27853 [5]; ATCC 27853),MIC P. aeruginosa FADDI-PA025 [6],"Kidney histopathology (SQS Score) (Swiss mice, kidney)","Kidney histopathology, mice with the SQS score (Swiss mice, kidney)",impact of lung surfactant on MIC (P. aeruginosa ATCC 27853 [5]; 10% Survanta vs none),"MIC, No Survanta (P. aeruginosa ATCC 27853 [5]; ATCC 27853)"
"CCCCCCCC(=O)N[C@@H](CCN)C(=O)N[C@H](C(=O)N[C@@H](CCN)C(=O)N[C@H]1CCNC(=O)[C@H]([C@@H](C)O)NC(=O)[C@H](CCN)NC(=O)[C@H](CCN)NC(=O)[C@H]([C@@H](C)O)NC(=O)[C@@H](CCCC)NC(=O)[C@H](CCN)NC1=O)[C@@H](C)O [Lipopeptide F226] (HELM PEPTIDE1{[CCCCCCCC(=O)[*:2]].[Dab].T.[Dab].[Dab].[Dab].[CCCC[C@@H](N[*:1])C(=O)[*:2]].T.[Dab].[Dab].T}$PEPTIDE1,PEPTIDE1,5:R3-11:R2$$$V2.0)",2 µg/mL,1 µg/mL,0.5 µg/mL,4.20 Log10 CFU/mL blood,−3.24 log10 CFU/mL blood,4.01 Log10 CFU/mL blood and 4.55 Log10 CFU/mL blood and 4.05 Log10 CFU/mL blood,-3.43 Log10 CFU/mL blood and -2.90 Log10 CFU/mL blood and -3.40 Log10 CFU/mL blood,<0.125 µg/mL,<0.125 µg/mL,1 µg/mL,1 µg/mL,16 µg/mL,"+1 (SQS + 1 = mild damage (overall score, 1 to <15))",1/3,,
"CCCCCCCC(=O)N[C@@H](CCN)C(=O)N[C@H](C(=O)N[C@@H](CCN)C(=O)N[C@H]1CCNC(=O)[C@H]([C@@H](C)O)NC(=O)[C@H](CCN)NC(=O)[C@H](CCN)NC(=O)[C@H](CO)NC(=O)[C@@H](CC(C)C)NC(=O)[C@H](CCN)NC1=O)[C@@H](C)O [Lipopeptide F227] (HELM PEPTIDE1{[CCCCCCCC(=O)[*:2]].[Dab].T.[Dab].[Dab].[Dab].[dL].S.[Dab].[Dab].T}$PEPTIDE1,PEPTIDE1,5:R3-11:R2$$$V2.0)",8 µg/mL,4 µg/mL,4 µg/mL,6.47 Log10 CFU/mL blood,−1.04 log10 CFU/mL blood,6.74 Log10 CFU/mL blood and 5.57 Log10 CFU/mL blood and 7.10 Log10 CFU/mL blood,-0.77 Log10 CFU/mL blood and -1.95 Log10 CFU/mL blood and -0.41 Log10 CFU/mL blood,0.25 µg/mL,0.25 µg/mL,>32 µg/mL,0.5 µg/mL,>32 µg/mL,"0 (SQS 0 = no significant change (overall score, <1))",3/3,,
"CCCCCCCC(=O)N[C@@H](CCN)C(=O)N[C@H](C(=O)N[C@@H](CCN)C(=O)N[C@H]1CCNC(=O)[C@H]([C@@H](C)O)NC(=O)[C@H](CCN)NC(=O)[C@H](CCN)NC(=O)[C@H](CC(C)C)NC(=O)[C@@H]([C@H](C)O)NC(=O)[C@H](CCN)NC1=O)[C@@H](C)O [Lipopeptide F228] (HELM PEPTIDE1{[CCCCCCCC(=O)[*:2]].[Dab].T.[Dab].[Dab].[Dab].[dT].L.[Dab].[Dab].T}$PEPTIDE1,PEPTIDE1,5:R3-11:R2$$$V2.0)",>32 µg/mL,32 µg/mL,16 µg/mL,4.13 Log10 CFU/mL blood,−3.39 log10 CFU/mL blood,3.99 Log10 CFU/mL blood and 4.11 Log10 CFU/mL blood and 4.28 Log10 CFU/mL blood,-3.52 Log10 CFU/mL blood and -3.40 Log10 CFU/mL blood and -3.24 Log10 CFU/mL blood,16 µg/mL,2 µg/mL,32 µg/mL,0.25 µg/mL,32 µg/mL,"+1 (SQS + 1 = mild damage (overall score, 1 to <15))",1/3,,
"CCCCCCCC(=O)N[C@@H](CCN)C(=O)N[C@H](C(=O)N[C@@H](CN)C(=O)N[C@H]1CCNC(=O)[C@H]([C@@H](C)O)NC(=O)[C@H](CCN)NC(=O)[C@H](CCN)NC(=O)[C@H]([C@@H](C)O)NC(=O)[C@@H](CC(C)C)NC(=O)[C@H](CCN)NC1=O)[C@@H](C)O [Lipopeptide F251] (HELM PEPTIDE1{[CCCCCCCC(=O)[*:2]].[Dab].T.[NC[C@H](N[*:1])C(=O)[*:2]].[Dab].[Dab].[dL].T.[Dab].[Dab].T}$PEPTIDE1,PEPTIDE1,5:R3-11:R2$$$V2.0)",0.5 µg/mL,0.25 µg/mL,0.25 µg/mL,5.87 Log10 CFU/mL blood,−1.57 log10 CFU/mL blood,6.12 Log10 CFU/mL blood and 5.83 Log10 CFU/mL blood and 5.67 Log10 CFU/mL blood,-1.33 Log10 CFU/mL blood and -1.61 Log10 CFU/mL blood and -1.78 Log10 CFU/mL blood,<0.125 µg/mL,<0.125 µg/mL,0.5 µg/mL,0.5 µg/mL,8 µg/mL,"0 (SQS 0 = no significant change (overall score, <1))",3/3,slightly impacted,0.5 µg/mL
"CCCCCCCC(=O)N[C@@H](CCN)C(=O)N[C@H](C(=O)N[C@@H](CCCN)C(=O)N[C@H]1CCNC(=O)[C@H]([C@@H](C)O)NC(=O)[C@H](CCN)NC(=O)[C@H](CCN)NC(=O)[C@H]([C@@H](C)O)NC(=O)[C@@H](CC(C)C)NC(=O)[C@H](CCN)NC1=O)[C@@H](C)O [Lipopeptide F252] (HELM PEPTIDE1{[CCCCCCCC(=O)[*:2]].[Dab].T.[Orn].[Dab].[Dab].[dL].T.[Dab].[Dab].T}$PEPTIDE1,PEPTIDE1,5:R3-11:R2$$$V2.0)",1 µg/mL,1 µg/mL,0.5 µg/mL,5.46 Log10 CFU/mL blood,−1.98 log10 CFU/mL blood,5.30 Log10 CFU/mL blood and 5.91 Log10 CFU/mL blood and 5.19 Log10 CFU/mL blood,-2.15 Log10 CFU/mL blood and -1.54 Log10 CFU/mL blood and -2.26 Log10 CFU/mL blood,0.5 µg/mL,<0.125 µg/mL,2 µg/mL,0.5 µg/mL,>32 µg/mL,"+1 (SQS + 1 = mild damage (overall score, 1 to <15))",2/3,,
